Literature values, collected in patent US8809326B2, “Isoquinolinone Rho kinase inhibitors” (Aerie Pharmaceuticals, Inc., priority 2006, dated 2014).

Key:
[1] = porcine, IL-1 beta-induced, long term treatment
[2] = rat stroke model

## O=S(=O)(c1cccc2cnccc12)N1CCCNCC1 [fasudil]
[1]
  coronary constrictive remodeling: promote a regression of coronary constrictive remodeling
  coronary stenosis: progressively reduce coronary stenosis
[2]
  infarct size: reduce
  neurologic deficit: reduce
